{"source": "patent US8435947B2", "about": "“Endothelial nitric oxide synthase antagonists and uses thereof for inhibiting oxygen toxicity” (Medical College of Georgia Research Institute, Inc., priority 2010, dated 2013)", "key": {"PAEC [1]": {"test_system": "PAEC", "experiment": "superoxide radicals in hyperoxic PAEC (DHE fluorescence)", "assay_type": "cell-based, pigs", "conditions": "95% oxygen 24 h, tiron 5 mM", "description": "After hyperoxic exposure, cells were loaded with 10 μM dihydroethidine (DHE) for 30 min. […] The excitation and emission wavelengths were 510 nm and 590 nm."}, "purified eNOS [2]": {"test_system": "purified eNOS", "experiment": "L-citrulline assay with purified eNOS", "assay_type": "biochemical, human", "conditions": "peptide 20 μm; for β-actin-induced increase in L-citrulline production: β-actin 2.0 μm", "description": "(§1) Wild-type and mutant eNOS proteins in COS-7 cells were purified. The catalytic activity of purified eNOS mutant protein was assayed by the measurement ofl-[^3H]citrulline formation from 1-[^3H]arginine as reported previously (Su, Y., et al. (2003) Am. J. Physiol. Cell Physiol. 284, C1542-49). To determine NADPH consumption by eNOS, 0.3 mm NADPH was added to 200 μl of reaction mix containing 1 μg eNOS, 1 μM FAD, 1 μmM FMN, 10 μg/ml calmodulin, 100 μMm L-arginine, 1 mM CaCl2, 10 μg/ml calmodulin, and 2.5 mM ATP. The reaction was monitored at […] for 10 min. NADPH consumption was calculated by using a molar extinction coefficient 6.22 mm^−·cm^−1. The superoxide formation from purified eNOS mutant was measured by spin trapping and EPR spectroscopy."}, "purified eNOS [3]": {"test_system": "purified eNOS", "experiment": "NO (NOx) production by purified eNOS in vitro", "assay_type": "biochemical, human", "conditions": "peptide 20 μm; for β-actin-induced increase in NO production: β-actin 2.0 μm", "description": "NO production was determined by measuring NOx (NO2 and NO3). Purified eNOS and β-actin were preincubated at room temperature for 30 min and then added to a 50-μl reaction mix containing 50 mM HEPES buffer, 1 mM NADPH, 100 μmM Larginine, 1 mmM CaCl2, 10 μg/ml calmodulin, 4 μM BH4. The mixture was incubated at 37° C. for 30 min. 40 μl of the reaction mix were loaded to the SIEVERS machine for NOx measurement according to standard manufacturer's instructions as previously described (Church, J. E., and Fulton, D. (2006) J. Biol. Chem. 281, 1477-88). For experiments with ABS peptides, β-actin and peptides were preincubated at room temperature for 20 min before eNOS protein was added."}, "purified eNOS [4]": {"test_system": "purified eNOS", "experiment": "superoxide generation by purified eNOS, spin-trapping EPR spectroscopy", "assay_type": "biochemical, human", "conditions": "peptide 20 μm; for β-actin-induced decrease in superoxide formation: β-actin 2.0 μm", "description": "eNOS-derived superoxide generation was measured by electron paramagnetic resonance (EPR) spectroscopy and spin trapping as previously described (Sud, N., et al. (2008) Am. J. Physiol. Cell Physiol. 294, C1407-18). 50 μl of reaction mix containing 50 mM HEPES buffer, 1 mM NADPH, 100 μM Larginine, 1 mM CaCl2, 10 μg/ml calmodulin, and 1 μg of purified eNOS were incubated at 37° C. for 60 min. 12.5 μl of spin probe N1-hydroxy-3-methoxy-carbonyl-2,2,5,5-tetramethyl-pyrrolidine (CMH) in EPR buffer were added to the reaction mix. 35 μl of the final reaction mix were loaded into a 50-μl capillary tube and analyzed with a MiniScopeMS200 EPR (Magnetech, Berlin, Germany). A reaction curve was generated by adding 1 unit/ml of xanthine oxidase into 500 μM xanthine solution in buffered PBS (pH 7.4), which contains 5 μM diethyldithiocarbamate and 25 μMm desferrioxamine to inhibit any conversion of superoxide into either hydrogen peroxide or hydroxyl radical via Fenton reaction. Reactions were allowed to proceed at 25° C. for up to 40 min. Following incubation, ˜35 μl of each reaction mixture was loaded into a 50 μl capillary tube and analyzed immediately with EPR spectroscopy. EPR spectra were analyzed for amplitude using […] software (version 2.02, Magnettech). Given that 1 unit of xanthine oxidase will convert 1 μmol of xanthine per minute at 25° C., based on this standard curve, it was calculated that 1 EPR amplitude units is equivalent of 0.35 pmol of superoxide."}, "[5]": {"biological_target": "T1, F-actin (polymerized human β-actin) (Homo sapiens, UniProt P60709)", "T1 construct": "purchased Cytoskeleton, Inc. (Denver, Co)", "experiment": "F-actin binding spin-down assay", "conditions": "peptide 10 μM, 23 μM F-actin, 30 min, 150,000×g 2 h", "description": "The binding capacities of the peptides to β-actin were measured by using an F-actin binding spin-down assay kit from Cytoskeleton, Inc. (Denver, Co). Monomeric human β-actin was polymerized into F-actin in F-actin buffer (5 mM Tris-HCl, pH 7.8, 1 mM ATP, 0.5 mM DTT, 0.2 mmM CaCl2, 0.2 mM MgCl2, and 100 mM KCl) for 1 h at 24° C. ABS peptides at final concentrations of 10 μM were incubated alone or with 23 μM F-actin in F-actin buffer for 30 min in a total volume of 50 μl. The mixtures were centrifuged at 150,000×g for 2 h at 24° C. in a Beckman TLA-100 rotor. Supernatant and pellet fractions were resuspended in loading buffer and subjected to SDS-PAGE. The gel was stained with Coomassie Blue. The density of the band was measured using Software Image J.\nActin binding capabilities of the synthesized ABS peptides corresponding to putative ABSs in eNOS were evaluated by the F-actin binding spin-down assay. ABS peptides 326 (P326), control peptides, ABS peptides 492 (P492), and ABS peptides 245 (P245) at final concentrations of 10 μm were incubated for 30 min alone or with 23 μm F-actin in F-actin buffer containing 2.5 μM ATP and 2.5 μM DTT. After high speed centrifugation at 150,000×g for 2 h, the supernatants and pellets were subjected to SDS-PAGE analysis."}, "purified eNOS [6]": {"test_system": "purified eNOS", "experiment": "NADPH consumption assay with purified eNOS", "assay_type": "biochemical, human", "conditions": "peptide 20 μm, β-actin 2.0 μm, absence of BH4", "description": "as §1"}, "[7]": {"test_system": "pulmonary artery endothelial cells", "experiment": "NO production in endothelial cells (NOx, SIEVERS)", "assay_type": "cell-based, pigs", "description": "(§2) After wild-type and eNOS mutant transfection, ionomycin (2 μm) was added to the cells. After 30 min of incubation, culture medium was collected and ethanol-precipitated to remove proteins. 50 μl of the reaction mix were loaded to the SIEVERS machine for NOx measurement according to standard manufacturer's instructions (Church, J. E., and Fulton, D. (2006) J. Biol. Chem. 281, 1477-88). In some experiments, N^G-nitro-1-arginine methyl ester (L-NAME), a specific eNOS inhibitor, was used to inhibit NO production. […] For superoxide assay, after incubation with ABS peptides, the spin trap CMH was added to the cells. Superoxide from cells was trapped for 1 h, and then cells were scraped and subjected to EPR spectroscopy as previously described (Sud, N., et al. (2008) Am. J. Physiol. Cell Physiol. 294, C1407-18). Protein contents in the cell lysates were determined by Lowry's method.\nTo measure NO production, endothelial cells were incubated with ABS peptides for 3 h. Then ionomycin (2 μM) was added to the cells. After an additional 30 min, culture medium was collected and ethanol-precipitated to remove proteins. 50 μl of the reaction mix were loaded to the SIEVERS machine for NOx measurement as described above. For superoxide assay, after incubation with ABS peptides, the spin trap CMH was added to the cells. […]"}, "[8]": {"test_system": "pulmonary artery endothelial cells", "experiment": "superoxide formation in endothelial cells (CMH spin trap, EPR)", "assay_type": "cell-based, pigs", "conditions": "ETU 100 μm", "description": "To measure NO production, endothelial cells were incubated with ABS peptides for 3 h. Then ionomycin (2 μM) was added to the cells. After an additional 30 min, culture medium was collected and ethanol-precipitated to remove proteins. 50 μl of the reaction mix were loaded to the SIEVERS machine for NOx measurement as described above. For superoxide assay, after incubation with ABS peptides, the spin trap CMH was added to the cells. Superoxide from cells was trapped for 1 h, and then cells were scraped and subjected to EPR spectroscopy."}, "COS-7 cells": {"test_system": "COS-7 cells", "experiment": "superoxide formation in COS-7 cells transfected with wild type or mutant eNOS", "assay_type": "cell-based", "conditions": "ETU 100 μm or PEG-SOD", "source_text": "Human eNOS gene (GenBank™ M93718.1) was cloned into HindIII and XbaI sites of pcDNA3 vector and regarded as wild-type eNOS. […] The site-directed mutagenesis was custom-made by Retrogen (San Diego, Calif.). The sequences of both strands of the gene in the mutated region were verified by using ABI 3730 automated sequencer. Plasmids containing wild-type eNOS cDNA or eNOS mutant cDNA were transfected into COS-7 cells using Lipofectamine LTX with PLUS reagent (Invitrogen, Carlsbad, Calif.) according to the manufacturer's protocol. 48 h after transfection, cells were used for co-immunoprecipitation and assays for NO and superoxide generation.\nas §2, with “Superoxide from cells was trapped for 1 h, and then cells were scraped and subjected to EPR spectroscopy as previously described (Sud, N., et al. (2008) Am. J. Physiol. Cell Physiol. 294, C1407-18).” left out"}, "[9]": {"test_system": "pulmonary artery endothelial cells", "experiment": "endothelial monolayer wound repair", "assay_type": "cell-based, pigs", "conditions": "PEG-SOD 100 units/ml, NOC-18 10 μm", "description": "Pulmonary artery endothelial cells were incubated with ABS peptides for 3 h. Then endothelial monolayer wound repair in the absence and presence of PEG-SOD (100 units/ml) and NOC-18 (10 μm) was measured as previously reported (Su, Y., et al. (2006) FASEB J. 20, 1443-51). Endothelial monolayer wound repair distance was expressed as the width of the wound before treatment subtracted by that after treatment."}, "PAEC [10]": {"test_system": "PAEC", "conditions": "peptide 20 μM, 95% oxygen 24 h", "description": "(§3) Third- to sixth-passage cells in monolayer culture were maintained in RPMI 1640 medium containing 4% fetal bovine serum and antibiotics (10 units/ml penicillin, 100 μg/ml streptomycin, 20 μg/ml gentamicin, and 2 μg/ml Fungizone) and were used 2 or 3 days after confluence."}, "PAEC [11]": {"test_system": "PAEC", "experiment": "peroxynitrite formation in hyperoxic PAEC (APF fluorescence)", "assay_type": "cell-based, pigs", "conditions": "95% oxygen 24 h, uric acid 100 μM", "description": "as §3\nTo reduce β-actin availability to eNOS, the β-actin mRNA was silenced using its siRNA as previously reported by us (Kondrikov, D., et al. (2006) Am. J. Physiol. Lung Cell Mol. Physiol. 290, L41-L50)."}}, "data": [{"compound": "O=S(=O)(O)c1cc(O)c(O)c(S(=O)(=O)O)c1", "note": "[tiron]", "values": [{"measurement": "increase in DHE fluorescence intensity (superoxide radical) in hyperoxic PAEC", "setting": "PAEC [1]", "value": "prevented the increase in the fluorescence intensity in hyperoxic PAEC"}]}, {"compound": "AGARAYAA [control peptide for peptide 326, reference compound]", "values": [{"measurement": "β-actin-induced increase in L-citrulline production", "setting": "purified eNOS [2]", "value": "did not affect β-actin-induced changes in the production of NO, L-citrulline, and superoxide from eNOS"}, {"measurement": "β-actin-induced increase in NO production", "setting": "purified eNOS [3]", "value": "did not affect β-actin-induced changes in the production of NO, L-citrulline, and superoxide from eNOS"}, {"measurement": "β-actin-induced decrease in superoxide formation", "setting": "purified eNOS [4]", "value": "did not affect β-actin-induced changes in the production of NO, L-citrulline, and superoxide from eNOS"}]}, {"compound": "NSQLVRYAGYRQQDGSVRGDPANVEITEL [ABS peptide 245]", "values": [{"measurement": "peptide pulled down to the pellets with F-actin", "setting": "[5]", "value": "not pulled down to the pellets with F-actin"}]}, {"compound": "LGLRWYAL [ABS peptide 326]", "values": [{"measurement": "L-citrulline production from eNOS, peptide per se", "setting": "purified eNOS [2]; without β-actin", "value": "did not affect NO and L-citrulline production and superoxide formation"}, {"measurement": "β-actin-induced increase in L-citrulline production", "setting": "purified eNOS [2]", "value": "prevented β-actin-induced increase in NO and L-citrulline production"}, {"measurement": "NO production from eNOS, peptide per se", "setting": "purified eNOS [3]; without β-actin", "value": "did not affect NO and L-citrulline production and superoxide formation"}, {"measurement": "β-actin-induced increase in NO production", "setting": "purified eNOS [3]", "value": "prevented β-actin-induced increase in NO and L-citrulline production"}, {"measurement": "superoxide formation from eNOS, peptide per se", "setting": "purified eNOS [4]; without β-actin", "value": "did not affect NO and L-citrulline production and superoxide formation"}, {"measurement": "β-actin-induced decrease in superoxide formation", "setting": "purified eNOS [4]", "value": "prevented"}, {"measurement": "β-actin-induced decrease in NADPH consumption", "setting": "purified eNOS [6]", "value": "prevented β-actin-induced decrease in NADPH consumption"}]}, {"compound": "COC(=O)[C@@H](N)CCCNC(=N)N[N+](=O)[O-]", "note": "[L-NAME, N^G-nitro-1-arginine methyl ester, reference compound]", "values": [{"measurement": "inhibition of NO production", "setting": "[7]", "value": 90, "unit": "%"}]}, {"compound": "CCSC(=N)N", "note": "[ETU, 2-ethyl-2-thiopseudourea, reference compound]", "values": [{"measurement": "P326TAT-induced increase in superoxide formation", "setting": "[8]", "value": "inhibited P326TAT-induced increase in superoxide formation"}, {"measurement": "superoxide generated from COS-7 cells, wild type versus eNOS mutant, in the presence of the agent", "setting": "COS-7 cells", "value": "the amounts of superoxide generated from COS-7 cells containing wild type and eNOS mutant were comparable"}]}, {"compound": "NCCN(CCN)/[N+]([O-])=N/O", "note": "[NOC-18, reference compound]", "values": [{"measurement": "P326TAT-induced decrease in monolayer wound repair", "setting": "[9]", "value": "prevented P326TAT-induced decrease in monolayer wound repair"}]}, {"compound": "RKKRRQRRRAAGARAYAA [control peptide TAT, reference compound]", "values": [{"measurement": "tyrosine nitration of proteins at 250, 100, 75, and 60 kDa, hyperoxia versus normoxia", "setting": "PAEC [10]", "value": "hyperoxia induced the increases in tyrosine nitration of proteins"}]}, {"compound": "O=c1[nH]c(=O)c2[nH]c(=O)[nH]c2[nH]1", "note": "[uric acid, reference compound]", "values": [{"measurement": "hyperoxia-induced increase in APF fluorescence intensity (peroxynitrite)", "setting": "PAEC [11]", "value": "prevented hyperoxia-induced increase in the fluorescence intensity"}]}]}
